In PubChem BioAssay (NCI):
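A five-concentration, 48-hour dose response in 96-well plates underlies each endpoint, interpolated linearly between surrounding concentrations. TGI marks complete inhibition of growth.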

What follows are molecules tested on NCI-H226 lung (assay: DTP human tumour cell line panel, 48 h).

Compound	TGI
NC(Cc1ccccc1)C(=O)N[C@H]1c2ccsc2/C(=N/O)[C@H]1O (stereo partly specified)	> 100 µM

Each molecule was assayed on NCI-H23 lung (assay: DTP human tumour cell line panel, 48 h).

Compound	TGI
CC(C)(C)c1cc(Br)c(O)c(CN(Cc2cc(C(C)(C)C)cc(Br)c2O)C2CCCCC2)c1	26.3 µM
O=Cc1ccc(OCc2cccc(COc3ccc(/C=N\Nc4ccc([N+](=O)[O-])cc4[N+](=O)[O-])cc3)n2)cc1	> 100 µM
O=C(N/N=C/c1ccccc1)c1c(-c2cccnc2)cnc2ccccc12	> 100 µM
Cc1ccc(SCC(CF)OC(C)n2cnc3c(=O)[nH]c(N)nc32)cc1 (stereo unspecified)	> 100 µM
COC(CNC(=O)C(C)NC(=O)CCc1ccccc1)OC (stereo unspecified)	> 100 µM
COc1ccc(C(=C(Cl)c2ccccc2)c2ccc(OC)cc2)cc1	> 100 µM
NC(Cc1ccccc1)C(=O)N[C@H]1c2ccsc2/C(=N/O)[C@H]1O (stereo partly specified)	> 100 µM

These molecules were tested on NCI-H460 lung (assay: DTP human tumour cell line panel, 48 h).

Compound	TGI
O=Cc1ccc(OCc2cccc(COc3ccc(/C=N\Nc4ccc([N+](=O)[O-])cc4[N+](=O)[O-])cc3)n2)cc1	> 100 µM
O=C(N/N=C/c1ccccc1)c1c(-c2cccnc2)cnc2ccccc12	> 100 µM
Cc1ccc(SCC(CF)OC(C)n2cnc3c(=O)[nH]c(N)nc32)cc1 (stereo unspecified)	> 100 µM
COC(CNC(=O)C(C)NC(=O)CCc1ccccc1)OC (stereo unspecified)	> 100 µM
COc1ccc(C(=C(Cl)c2ccccc2)c2ccc(OC)cc2)cc1	> 100 µM
NC(Cc1ccccc1)C(=O)N[C@H]1c2ccsc2/C(=N/O)[C@H]1O (stereo partly specified)	> 100 µM

Each molecule was assayed on NCI-H522 lung (assay: DTP human tumour cell line panel, 48 h).

Compound	TGI
CC(C)(C)c1cc(Br)c(O)c(CN(Cc2cc(C(C)(C)C)cc(Br)c2O)C2CCCCC2)c1	25.1 µM
O=Cc1ccc(OCc2cccc(COc3ccc(/C=N\Nc4ccc([N+](=O)[O-])cc4[N+](=O)[O-])cc3)n2)cc1	> 100 µM
O=C(N/N=C/c1ccccc1)c1c(-c2cccnc2)cnc2ccccc12	> 100 µM
Cc1ccc(SCC(CF)OC(C)n2cnc3c(=O)[nH]c(N)nc32)cc1 (stereo unspecified)	> 100 µM
COC(CNC(=O)C(C)NC(=O)CCc1ccccc1)OC (stereo unspecified)	> 100 µM
COc1ccc(C(=C(Cl)c2ccccc2)c2ccc(OC)cc2)cc1	> 100 µM

What follows are molecules tested on NCI/ADR-RES ovarian (assay: DTP human tumour cell line panel, 48 h).

Compound	TGI
CC(C)(C)c1cc(Br)c(O)c(CN(Cc2cc(C(C)(C)C)cc(Br)c2O)C2CCCCC2)c1	24.3 µM
O=Cc1ccc(OCc2cccc(COc3ccc(/C=N\Nc4ccc([N+](=O)[O-])cc4[N+](=O)[O-])cc3)n2)cc1	> 100 µM
O=C(N/N=C/c1ccccc1)c1c(-c2cccnc2)cnc2ccccc12	> 100 µM
Cc1ccc(SCC(CF)OC(C)n2cnc3c(=O)[nH]c(N)nc32)cc1 (stereo unspecified)	> 100 µM
COC(CNC(=O)C(C)NC(=O)CCc1ccccc1)OC (stereo unspecified)	> 100 µM
COc1ccc(C(=C(Cl)c2ccccc2)c2ccc(OC)cc2)cc1	> 100 µM
O=C(NCCCNCCCNC(=O)c1cc(-c2ccccc2)nc2ccccc12)c1cc(-c2ccccc2)nc2ccccc12	4.13 µM
NC(Cc1ccccc1)C(=O)N[C@H]1c2ccsc2/C(=N/O)[C@H]1O (stereo partly specified)	> 100 µM

What follows are molecules tested on OVCAR-3 ovarian (assay: DTP human tumour cell line panel, 48 h).

Compound	TGI
CC(C)(C)c1cc(Br)c(O)c(CN(Cc2cc(C(C)(C)C)cc(Br)c2O)C2CCCCC2)c1	24.2 µM
O=Cc1ccc(OCc2cccc(COc3ccc(/C=N\Nc4ccc([N+](=O)[O-])cc4[N+](=O)[O-])cc3)n2)cc1	> 100 µM
O=C(N/N=C/c1ccccc1)c1c(-c2cccnc2)cnc2ccccc12	> 100 µM
Cc1ccc(SCC(CF)OC(C)n2cnc3c(=O)[nH]c(N)nc32)cc1 (stereo unspecified)	> 100 µM
COc1ccc(C(=C(Cl)c2ccccc2)c2ccc(OC)cc2)cc1	> 100 µM
O=C(NCCCNCCCNC(=O)c1cc(-c2ccccc2)nc2ccccc12)c1cc(-c2ccccc2)nc2ccccc12	3.23 µM
NC(Cc1ccccc1)C(=O)N[C@H]1c2ccsc2/C(=N/O)[C@H]1O (stereo partly specified)	> 100 µM

The molecules below were run on OVCAR-4 ovarian (assay: DTP human tumour cell line panel, 48 h).

Compound	TGI
CC(C)(C)c1cc(Br)c(O)c(CN(Cc2cc(C(C)(C)C)cc(Br)c2O)C2CCCCC2)c1	22.3 µM
O=Cc1ccc(OCc2cccc(COc3ccc(/C=N\Nc4ccc([N+](=O)[O-])cc4[N+](=O)[O-])cc3)n2)cc1	> 100 µM
O=C(N/N=C/c1ccccc1)c1c(-c2cccnc2)cnc2ccccc12	> 100 µM
Cc1ccc(SCC(CF)OC(C)n2cnc3c(=O)[nH]c(N)nc32)cc1 (stereo unspecified)	> 100 µM
COC(CNC(=O)C(C)NC(=O)CCc1ccccc1)OC (stereo unspecified)	> 100 µM
COc1ccc(C(=C(Cl)c2ccccc2)c2ccc(OC)cc2)cc1	> 100 µM
O=C(NCCCNCCCNC(=O)c1cc(-c2ccccc2)nc2ccccc12)c1cc(-c2ccccc2)nc2ccccc12	3.32 µM
NC(Cc1ccccc1)C(=O)N[C@H]1c2ccsc2/C(=N/O)[C@H]1O (stereo partly specified)	> 100 µM

The molecules below were run on OVCAR-5 ovarian (assay: DTP human tumour cell line panel, 48 h).

Compound	TGI
CC(C)(C)c1cc(Br)c(O)c(CN(Cc2cc(C(C)(C)C)cc(Br)c2O)C2CCCCC2)c1	29.1 µM
O=Cc1ccc(OCc2cccc(COc3ccc(/C=N\Nc4ccc([N+](=O)[O-])cc4[N+](=O)[O-])cc3)n2)cc1	> 100 µM
O=C(N/N=C/c1ccccc1)c1c(-c2cccnc2)cnc2ccccc12	> 100 µM
Cc1ccc(SCC(CF)OC(C)n2cnc3c(=O)[nH]c(N)nc32)cc1 (stereo unspecified)	> 100 µM
COC(CNC(=O)C(C)NC(=O)CCc1ccccc1)OC (stereo unspecified)	> 100 µM
COc1ccc(C(=C(Cl)c2ccccc2)c2ccc(OC)cc2)cc1	> 100 µM
O=C(NCCCNCCCNC(=O)c1cc(-c2ccccc2)nc2ccccc12)c1cc(-c2ccccc2)nc2ccccc12	3.53 µM
NC(Cc1ccccc1)C(=O)N[C@H]1c2ccsc2/C(=N/O)[C@H]1O (stereo partly specified)	> 100 µM
